Tests used:
[1] = target: T1, recombinant human ALK5 (TGF-βR1) protein (Homo sapiens, UniProt P36897); assay: Biochemical ALK5 (TGF-βR1) assay to measure pKi (LANCE Ultra ULight kinase assay); details: apparent pKi, converted from pIC50 by Cheng-Prusoff
T1 construct: purchased Life Technologies PR9075A
T1 sequence (P36897 34-503): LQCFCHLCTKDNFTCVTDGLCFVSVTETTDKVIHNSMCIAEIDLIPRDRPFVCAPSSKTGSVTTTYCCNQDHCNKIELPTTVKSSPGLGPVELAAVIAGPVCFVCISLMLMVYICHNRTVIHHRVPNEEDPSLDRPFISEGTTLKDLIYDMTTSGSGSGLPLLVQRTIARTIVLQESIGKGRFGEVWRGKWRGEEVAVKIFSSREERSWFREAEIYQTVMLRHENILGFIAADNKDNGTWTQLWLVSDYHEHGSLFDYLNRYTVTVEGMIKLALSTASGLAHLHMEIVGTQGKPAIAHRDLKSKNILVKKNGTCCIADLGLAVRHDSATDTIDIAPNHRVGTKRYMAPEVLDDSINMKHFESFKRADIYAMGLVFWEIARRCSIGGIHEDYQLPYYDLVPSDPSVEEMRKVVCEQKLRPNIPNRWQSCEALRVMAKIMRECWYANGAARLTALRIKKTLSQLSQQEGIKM
How it was run: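 Enzyme preincubated with compound for 60 min at room temperature, then reacted with ATP (125 μM as 5× stock) for 60 min at 37 °C. Stopped with EDTA plus Eu-anti-phospho-Topoisomerase 2-alpha (Thr1342) antibody and read by TR-FRET at 665 nm. pIC50 from a 4-parameter fit, converted to pKi by Cheng-Prusoff.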

[2] = test system: TGF-β-stimulated SMAD3 phosphorylation in BEAS-2B cells; assay: Cellular ALK5 potency assay, inhibition of TGF-β stimulated pSMAD3 formation in BEAS-2B cells; assay type: cell-based; details: Homo sapiens, pSMAD3, TGF-β 10 ng/mL, read-out: BEAS2B pIC50 (converted)
How it was run: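 Read-out is AlphaLISA detection of phospho-SMAD3 in lysates of BEAS-2B human lung epithelial cells. Cells are exposed to compound for 1 hour, then to 10 ng/mL TGF-β (final) for 30 minutes. Values are pIC50 from concentration–response curves.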

Row | Structure (SMILES) | Ki [1] | IC50 [2]
1 | Cc1cccc(-c2nccc(Nc3ccnc(Nc4ccc(NS(=O)(=O)N(C)C5CCNCC5)cc4)n3)n2)n1 [Compound 441, 4-[[2-[4-[[methyl(4-piperidyl)sulfamoyl]amino]anilino]pyrimidin-4-yl]amino]-2-(6-methyl-2-pyridyl)pyrimidine] | 0.0398 to 0.316 nM | 25.1 to 158 nM
2 | COC(=O)Cc1ccc(Nc2nccc(Nc3ccnc(-c4cccc(C)n4)n3)n2)cc1 [Compound 442, methyl 2-[4-[[4-[[2-(6-methyl-2-pyridyl)pyrimidin-4-yl]amino]pyrimidin-2-yl]amino]phenyl]acetate] | 0.398 to 3.16 nM | 25.1 to 158 nM
3 | Cc1cccc(-c2nccc(Nc3ccnc(Nc4cccc(NC(=O)C5CCCNC5)c4)n3)n2)n1 (stereo not shown) [Compound 443, N-(3-((4-((2-(6-methylpyridin-2-yl)pyrimidin-4-yl)amino)pyrimidin-2-yl)amino)phenyl)piperidine-3-carboxamide] | 0.0398 to 0.316 nM | ≤ 20 nM
4 | Cc1cccc(-c2nccc(Nc3ccnc(Nc4ccc(CN5CCCC(C(=O)O)C5)cc4)n3)n2)n1 (stereo not shown) [Compound 444, 1-[[4-[[4-[[2-(6-methyl-2-pyridyl)pyrimidin-4-yl]amino]pyrimidin-2-yl]amino]phenyl]methyl] piperidine-3-carboxylic acid] | 0.0398 to 0.316 nM | 25.1 to 158 nM
5 | Cc1cccc(-c2nccc(Nc3ccnc(Nc4ccc(N5CCNCC5)c(Cl)c4)n3)n2)n1 [Compound 445, N2-(3-chloro-4-piperazin-1-yl-phenyl)-N4-[2-(6-methyl-2-pyridyl)pyrimidin-4-yl]pyrimidine-2,4-diamine] | 0.0398 to 0.316 nM | 25.1 to 158 nM
6 | CN1CCN(C2CCN(c3ccc(Nc4nccc(Nc5ccnc(-c6ccccc6F)n5)n4)cc3)CC2)CC1 [Compound 446, N4-[2-(2-fluorophenyl)pyrimidin-4-yl]-N2-[4-[4-(4-methylpiperazin-1-yl)-1-piperidyl]phenyl]pyrimidine-2,4-diamine] | 0.398 to 3.16 nM | 25.1 to 158 nM
7 | Cc1cccc(-c2nccc(Nc3ccnc(Nc4ccc(N5CCNCC5)c(C#N)c4)n3)n2)n1 [Compound 447, 5-[[4-[[2-(6-methyl-2-pyridyl)pyrimidin-4-yl]amino]pyrimidin-2-yl]amino]-2-piperazin-1-yl-benzonitrile] | 0.0398 to 0.316 nM | 25.1 to 158 nM
8 | Cc1cccc(-c2nccc(Nc3ccnc(Nc4ccc(N5CCN(C(CCO)C(=O)O)CC5)cc4)n3)n2)n1 (stereo not shown) [Compound 448, 4-hydroxy-2-[4-[4-[[4-[[2-(6-methyl-2-pyridyl)pyrimidin-4-yl]amino]pyrimidin-2-yl]amino]phenyl]piperazin-1-yl]butanoic acid] | 0.0398 to 0.316 nM | 25.1 to 158 nM
9 | CC[C@H](C)OC(=O)CC1CNCCN1c1ccc(Nc2nccc(Nc3ccnc(-c4cccc(C)n4)n3)n2)cc1 (stereo partly drawn) [Compound 449, [(1S)-1-methylpropyl] 2-[1-[4-[[4-[[2-(6-methyl-2-pyridyl)pyrimidin-4-yl]amino]pyrimidin-2-yl]amino]phenyl]piperazin-2-yl]acetate] | 0.0398 to 0.316 nM | 25.1 to 158 nM
10 | Cc1cccc(-c2nccc(Nc3ccnc(Nc4ccc(N5CCC(NCc6ccccc6)CC5)cc4)n3)n2)n1 [Compound 450, N2-[4-[4-(benzylamino)-1-piperidyl]phenyl]-N4-[2-(6-methyl-2-pyridyl)pyrimidin-4-yl]pyrimidine-2,4-diamine] | 0.0398 to 0.316 nM | 200 to 1260 nM
11 | COC(=O)CC1CN(Cc2ccc(Nc3nccc(Nc4ccnc(-c5cccc(C)n5)n4)n3)cc2)CCN1 (stereo not shown) [Compound 451, methyl 2-[4-[[4-[[4-[[2-(6-methyl-2-pyridyl)pyrimidin-4-yl]amino]pyrimidin-2-yl]amino]phenyl]methyl]piperazin-2-yl]acetate] | 0.0398 to 0.316 nM | 25.1 to 158 nM
12 | Cc1cccc(-c2nccc(Nc3ccnc(Nc4csc(NC(=O)C5CCNCC5)c4)n3)n2)n1 [Compound 452, N-(4-((4-((2-(6-methylpyridin-2-yl)pyrimidin-4-yl)amino)pyrimidin-2-yl)amino)thiophen-2-yl)piperidine-4-carboxamide] | 0.0398 to 0.316 nM | ≤ 20 nM
13 | Cc1cccc(-c2nccc(Nc3ccnc(Nc4ccc(CN5C[C@H](C)NC[C@@H]5C)cc4)n3)n2)n1 [Compound 453, N2-[4-[[(2S,5S)-2,5-dimethylpiperazin-1-yl]methyl]phenyl]-N4-[2-(6-methyl-2-pyridyl)pyrimidin-4-yl]pyrimidine-2,4-diamine] | 0.0398 to 0.316 nM | 25.1 to 158 nM
14 | Cc1cccc(-c2nccc(Nc3ccnc(Nc4ccc(N5CCCC(C(=O)O)C5)cc4)n3)n2)n1 (stereo not shown) [Compound 454, 1-[4-[[4-[[2-(6-methyl-2-pyridyl)pyrimidin-4-yl]amino]pyrimidin-2-yl]amino]phenyl]piperidine-3-carboxylic acid] | 0.0398 to 0.316 nM | 200 to 1260 nM
15 | Cc1cccc(-c2nccc(Nc3ccnc(Nc4ccc(NS(=O)(=O)c5c[nH]cn5)cc4)n3)n2)n1 [Compound 455, N-[4-[[4-[[2-(6-methyl-2-pyridyl)pyrimidin-4-yl]amino]pyrimidin-2-yl]amino]phenyl]-1H-imidazole-4-sulfonamide] | 0.398 to 3.16 nM | 200 to 1260 nM
16 | Cc1cccc(-c2nccc(Nc3ccnc(Nc4ccc(N5CCN(C6CC6)CC5)cc4)n3)n2)n1 [Compound 457, N2-[4-(4-cyclopropylpiperazin-1-yl)phenyl]-N4-[2-(6-methyl-2-pyridyl)pyrimidin-4-yl]pyrimidine-2,4-diamine] | 0.0398 to 0.316 nM | 25.1 to 158 nM
17 | Cc1cccc(-c2nccc(Nc3ccnc(Nc4ccc(C)c(CN5C6CCC5CNC6)c4)n3)n2)n1 [Compound 458, N2-[3-(3,8-diazabicyclo[3.2.1]octan-8-ylmethyl)-4-methyl-phenyl]-N4-[2-(6-methyl-2-pyridyl)pyrimidin-4-yl]pyrimidine-2,4-diamine] | 0.0398 to 0.316 nM | 25.1 to 158 nM
18 | Cc1cccc(-c2nccc(Nc3ccnc(Nc4cccc(C(=O)O[C@@H]5CCNC5)c4)n3)n2)n1 [Compound 459, [(3R)-pyrrolidin-3-yl] 3-[[4-[[2-(6-methyl-2-pyridyl)pyrimidin-4-yl]amino]pyrimidin-2-yl]amino]benzoate] | 0.398 to 3.16 nM | 25.1 to 158 nM
19 | Cc1cccc(-c2nccc(Nc3ccnc(Nc4nc(CN5CCC[C@@H](C(=O)O[C@@H]6CCN(C)C6)C5)cs4)n3)n2)n1 [Compound 460, [(3R)-1-methylpyrrolidin-3-yl] (3R)-1-[[2-[[4-[[2-(6-methyl-2-pyridyl)pyrimidin-4-yl]amino]pyrimidin-2-yl]amino]thiazol-4-yl]methyl]piperidine-3-carboxylate] | 0.0398 to 0.316 nM | 25.1 to 158 nM
20 | Cc1cccc(-c2nccc(Nc3ccnc(Nc4ccc(F)c(CN5CCSCC5)c4)n3)n2)n1 [Compound 461, N2-[4-fluoro-3-(thiomorpholinomethyl)phenyl]-N4-[2-(6-methyl-2-pyridyl)pyrimidin-4-yl]pyrimidine-2,4-diamine] | 0.398 to 3.16 nM | 25.1 to 158 nM
21 | COC(=O)CC1CNCCN1c1ccc(Nc2nccc(Nc3ccnc(-c4cccc(C)n4)n3)n2)cc1 (stereo not shown) [Compound 462, methyl 2-[1-[4-[[4-[[2-(6-methyl-2-pyridyl)pyrimidin-4-yl]amino]pyrimidin-2-yl]amino]phenyl]piperazin-2-yl]acetate] | 0.0398 to 0.316 nM | 25.1 to 158 nM
22 | Cc1cccc(-c2nccc(Nc3ccnc(Nc4ccc(CN5CCN[C@H](CO)C5)cc4)n3)n2)n1 [Compound 463, [(2S)-4-[[4-[[4-[[2-(6-methyl-2-pyridyl)pyrimidin-4-yl]amino]pyrimidin-2-yl]amino]phenyl]methyl]piperazin-2-yl]methanol] | 0.0398 to 0.316 nM | 25.1 to 158 nM
23 | Cc1cccc(-c2nccc(Nc3ccnc(Nc4ccc(C(=O)O[C@@H]5CCN(C)C5)cc4)n3)n2)n1 [Compound 464, [(3R)-1-methylpyrrolidin-3-yl] 4-[[4-[[2-(6-methyl-2-pyridyl)pyrimidin-4-yl]amino]pyrimidin-2-yl]amino]benzoate] | 0.0398 to 0.316 nM | 25.1 to 158 nM
24 | Cc1cccc(-c2nccc(Nc3ccnc(Nc4ccc(NC(=O)C5CCN(C6CCNC6)CC5)cc4)n3)n2)n1 (stereo not shown) [Compound 465, N-[4-[[4-[[2-(6-methyl-2-pyridyl)pyrimidin-4-yl]amino]pyrimidin-2-yl]amino]phenyl]-1-pyrrolidin-3-yl-piperidine-4-carboxamide] | 0.0398 to 0.316 nM | ≤ 20 nM
25 | CC[C@H](C)OC(=O)Cc1cc(Nc2nccc(Nc3ccnc(-c4cccc(C)n4)n3)n2)ccc1N1CCNCC1 [Compound 466, [(1S)-1-methylpropyl] 2-[5-[[4-[[2-(6-methyl-2-pyridyl)pyrimidin-4-yl]amino]pyrimidin-2-yl]amino]-2-piperazin-1-yl-phenyl]acetate] | 0.0398 to 0.316 nM | 25.1 to 158 nM
26 | Cc1cccc(-c2nccc(Nc3ccnc(Nc4nc(CN(C)C5CNC5)cs4)n3)n2)n1 [Compound 467, N2-[4-[[azetidin-3-yl(methyl)amino]methyl]thiazol-2-yl]-N4-[2-(6-methyl-2-pyridyl)pyrimidin-4-yl]pyrimidine-2,4-diamine] | 0.398 to 3.16 nM | 25.1 to 158 nM

Reference: patent US20230399312A1, “SUBSTITUTED PYRIMIDINES AND METHODS OF USE” (THERAVANCE BIOPHARMA R&D IP, LLC, priority 2020, published 2023)
